According to PubChem BioAssay (NCI):
Where “and” joins values, the source holds several entries; their conditions need not be identical. Identical values can stand only once.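 A five-concentration, 48-hour dose response in 96-well plates underlies each endpoint, interpolated linearly between surrounding concentrations. GI50: concentration for 50% inhibition of growth. TGI: concentration producing complete growth inhibition.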

What was measured:
Experiment in all cases: growth of human tumour cells (NCI), 48 h
786-0 renal = test system: 786-0 renal
ACHN renal = test system: ACHN renal
CAKI-1 renal = test system: CAKI-1 renal
EKVX NSCLC = test system: EKVX NSCLC
HOP-92 NSCLC = test system: HOP-92 NSCLC
MDA-MB-435 = test system: MDA-MB-435
OVCAR-3 ovarian = test system: OVCAR-3 ovarian
SK-MEL-5 melanoma = test system: SK-MEL-5 melanoma
SNB-19 CNS = test system: SNB-19 CNS
A498 renal = test system: A498 renal

| Structure (SMILES) | TGI (786-0 renal) | TGI (ACHN renal) | TGI (CAKI-1 renal) | TGI (EKVX NSCLC) | TGI (HOP-92 NSCLC) | TGI (MDA-MB-435) | TGI (OVCAR-3 ovarian) | TGI (SK-MEL-5 melanoma) | TGI (SNB-19 CNS) | TGI (A498 renal) | GI50 (A498 renal) | GI50 (ACHN renal) | GI50 (CAKI-1 renal) | GI50 (EKVX NSCLC) | GI50 (MDA-MB-435) | GI50 (OVCAR-3 ovarian) | GI50 (SK-MEL-5 melanoma) | GI50 (SNB-19 CNS) |
| --- | --- | --- | --- | --- | --- | --- | --- | --- | --- | --- | --- | --- | --- | --- | --- | --- | --- | --- |
| Cc1cc(NS(=O)(=O)c2ccc(NC(=O)c3cccc4c(NNc5ccc(S(=O)(=O)N=C(N)N)cc5)c5ccccc5nc34)cc2)no1 | > 100 µM | > 100 µM | > 100 µM | 93.2 µM | 92.7 µM | > 100 µM | > 100 µM | > 100 µM | > 100 µM |  |  |  |  |  |  |  |  |  |
| N/N=C1/C(=N/O)CCc2nonc21 | > 100 µM | > 100 µM | > 100 µM | > 100 µM | > 100 µM | > 100 µM | > 100 µM | > 100 µM | > 100 µM |  |  |  |  |  |  |  |  |  |
| Cn1c(-c2ccc[se]2)ccc1-c1ccc(CO)[se]1 | > 100 µM | > 71.5 µM | < 0.0332 µM | > 100 µM | 43.2 µM | > 67.7 µM |  | > 100 µM | > 100 µM | 0.14 µM |  |  |  |  |  |  |  |  |
| Cc1cc2ccccc2n1CC(=O)N1CCCC1 | > 100 µM | > 100 µM |  | > 100 µM | > 100 µM | > 100 µM | > 100 µM | > 100 µM | > 100 µM |  |  |  |  |  |  |  |  |  |
| CC1CCc2c(sc3ncnc(N/N=C/c4ccc(Cl)c(Cl)c4)c23)C1 (stereo not drawn) | 55.8 µM | 58 µM | 56.6 µM | 89.8 µM |  |  | 57.4 µM | 51.3 µM | 74.3 µM |  |  |  |  |  |  |  |  |  |
| Fc1ccc(C2CC(c3cccc(Nc4ccncc4)c3)=NN2c2cc(Cl)cc(Cl)c2)cc1 (stereo not drawn) |  | 3.02 µM | 2.92 µM | 3.38 µM |  | 3.13 µM | 3.32 µM | 3.34 µM | 3.32 µM | 2.6 µM | 1.17 µM | 1.66 µM | 1.54 µM | 1.71 µM | 1.68 µM | 1.8 µM | 1.81 µM | 1.74 µM |
| CN(C)CCOC(=O)c1ccc(N)cc1 | > 100 µM | > 100 µM | > 100 µM |  | 49.5 µM | > 100 µM | > 100 µM | > 100 µM | > 100 µM | > 100 µM |  |  |  |  |  |  |  |  |
| O=C1CSC2=NCC3(NN12)c1ccccc1-c1ccccc13 | > 10 µM | > 10 µM | > 10 µM | > 10 µM | > 10 µM | > 10 µM |  | > 10 µM | > 10 µM |  |  |  |  |  |  |  |  |  |
| S=c1nc2[nH]c3ccc(Br)cc3c2n[nH]1 | > 100 µM |  | > 100 µM | > 100 µM | > 100 µM | 38.4 µM | > 100 µM | > 100 µM | > 100 µM | > 100 µM |  |  |  |  |  |  |  |  |
| O=C1OC2(C(F)(F)F)Oc3ccccc3CN2C12CCCCC2 (stereo not drawn) | > 100 µM | 38.1 µM | 56.1 µM | > 100 µM | 61.7 µM | > 100 µM | > 100 µM |  | > 100 µM | > 100 µM |  |  |  |  |  |  |  |  |
| CN(C)CCCNc1c2ccccc2nc2cccc([N+](=O)[O-])c12 | 0.0058 µM and 0.0531 µM |  |  | 0.448 µM | 0.00435 µM | 0.00242 µM | 0.0673 µM | < 0.001 µM | 0.0171 µM and 0.142 µM | 0.00198 µM |  |  | < 0.001 µM |  |  |  |  | 0.0303 µM |
